From patent US6548540B2, “Method of treating cancer using dithiocarbamate derivatives” (Charlotte-Mecklenburg Hospital Authority, priority 1998, dated 2003) come the findings set out here.

Assay type in all cases: cell-based, human
In one experiment the test system is cyclin A. Description: Immunoblot for cyclin A in M1619 cells. Particulars: 24 hours. The method, then: Cells were lysed and proteins were isolated and quantitated by immunoassay as previously detailed using 2 μg/ml of primary rabbit polyclonal antibodies against human bcl-2, p53, p21^WAF1/CiP1, cyclin A and cyclin B1, and peroxidase-labeled donkey polyclonal anti-rabbit IgG. Cells were placed on ice, washed twice with cold DPBS, scraped into 0.5 ml boiling buffer (10% [vol/vol] glycerol and 2% [wt/vol] sodium dodecyl sulfate [SDS] in 83 mM Tris, pH 6.8) and sheared by four passages through a pipette. Aliquots were removed for protein determination, using the BCA protein assay (Pierce). After 10% β-mercaptoethanol and 0.05% bromophenol blue were added, lysates were boiled for 5 min and stored at -80° C. until immunoblotting was performed. Proteins in defrosted samples were separated by SDS-polyacrylamide gel electrophoresis on 12% polyacrylamide gels (15 μg protein/lane) and electrotransferred to 0.45 μm Hybond ECL nitrocellulose membranes (Amersham Life Sciences) using the wet transblot method in transfer buffer (0.025 M Tris, 0.192 M glycine, 2.6 mM SDS, and 20%[vol/vol] methanol; pH 8.8) at 100 volts for 1 hour. Blots were blocked overnight at 4° C. with blocking buffer (PBS with 0.1% Tween 20) containing 5% fat-free milk powder (Carnation, Glendale, Calif.). After rinsing 5 times for 5 minutes each in PBS containing 0.1% Tween 20, blots were incubated for 1 hour at room temperature with 2.0 μg/ml of primary antibody. After rinsing again as above, blots were incubated for 1 hr at room temperature with horseradish peroxidase (HRP)-conjugated secondary antibody diluted 1:5,000 in blocking buffer. Immunoblots were rinsed again as above and detected via an enhanced chemiluminescence method (ECL Western blotting detection system, Amersham Life Science, Buckinghamshire, England). Autoradiographic film (X-OMAT AR, Eastman Kodak, Rochester, N.Y.) was exposed to immunoblots for 10, 30, or 60 seconds to obtain satisfactory images. Since disulfiram and copper disrupt transcription factor DNA binding to CRE, their effect on expression of cyclin A was studied. […]
(In general: In western blotting, separated proteins are transferred to a membrane and probed.)

Another experiment deals with M1619 melanoma cells. Description: Intracellular copper by plasma emission spectroscopy. Particulars: 6 hours, ng copper/ml of hydrolysate. The method, then:
Finally, a number of dithiocarbamate effects on cells have been attributed to increasing the intracellular levels of copper ions. To further probe the role of copper in mediating cytotoxicity from disulfiram, cells were cultured with or without addition of the impermeate Cu^2+ chelator bathocuprioinedisulfonic acid (BCPS, 100 μM) added to medium to sequester Cu^2+ in the extracellular compartment. Cells were also treated 12 hours with various concentration of disulfiram (0.625 to 5.0 μM) and intracellular copper levels were measured as outlined below.
Cells were cultured in 12-well plastic tissue culture plates at an initial plating density of 50,000 cells/well, grown to confluence and treated with disulfiram or vehicle DMSO as outlined above. Media was removed and cells were washed twice with DPBS. Cells were then scraped into 1.0 ml of 3N HCl/10.0% trichloroacetic acid and hydrolyzed at 70° C. for 16 hours. The hydrolysate was centrifuged at 600 gm for 10 minutes to remove debris and copper was measured in the supernatant using inductively coupled plasma emission spectroscopy (Model P30, Perkin Elmer, Norwalk, Conn.) at wavelengths of […] and 224.700 nm. To minimize metal contamination, plasticware rather than glassware was used in these experiments, and double-distilled, deionized water was used for all aqueous media. Results are reported as ng copper/ml of hydrolysate.
M1619 melanoma cells were cultured at a density of 50,000 cells/well in 24 well plates in the presence of 10% FBS and grown to confluence. Disulfiram or DMSO vehicle (5 μl/ml) was added at the concentrations indicated, and cells were incubated an additional 6 hours. Supernatant was removed from cells and monolayers were washed twice with DPBS. Cells were scraped into 1.0 ml 3 N HCL/10% trichloroacetic acid and hydrolyzed at 70° C. for 16 hours. After centrifugation at 600 g×10 min, copper was measured using inductively coupled plasma emission spectroscopy at wavelengths of 324.754 and 224.700 nm. Replicates of four are reported. To minimize metal contamination, plastic ware rather than glass was used in experiments, and double-distilled, deionized water was used for all aqueous media. ^Ap<0.01 compared to DMSO control; ^Bp<0.001 compared to DMSO control.

The test system of a further experiment is M1619 cells. As to the kind of experiment: Intracellular reactive oxygen species, dichlorofluorescin probe. As to the method:
Potential redox effects of disulfiram were studied in three sets of experiments. The importance of cellular glutathione (GSH) in mediating or modulating thiocarbamate toxicity was studied by measuring levels of intracellular GSH after treatment with disulfiram. […] Also, to assess whether a nonspecific antioxidant effect of disulfiram or PDTC might account for cellular growth inhibition, we studied the effect of the potent lipophilic antioxidant probucol (1.0 to 1,000 μM) on proliferation of malignant cell lines. […] A. Royall, et al., “Evaluation of 2′,7′-dichlorofluorescin and dihydrorhodamine 123 as fluorescent probes for intracellular H2O2 in cultured endothelial cells,” Archiv. Biochem. Biophys. 302:348-355 (1993)). […] Cells were plated in 24 well plastic plates at 50,000 cells per well and grown to confluence. Media was aspirated from wells and replaced with 100 μl medium containing 10 μM DCF-DA, and plates were incubated at 37° C. for 30 minutes. The DCF-DA containing media was aspirated, cells were washed twice with media alone and 100 μl fresh media was added to wells. […] The relative concentration of dichlorofluroescein was measured immediately by monitoring fluorescence at 37° C. using an excitation wavelength of 485 nm and emission wavelength of 535 nm.

For `CCN(CC)C(=S)SSC(=S)N(CC)CC` [Disulfiram, tetraethylthiuram disulfide], the “cyclin A expression” value in the experiment on cyclin A (disulfiram 5 μM alone) was “little effect”. Besides, in the experiment with cyclin A (disulfiram 5 μM plus CuSO4 1.6 μM), the “reduction of cyclin A expression” value was “over two-thirds”. Besides, the “Intracellular Copper” value is 76 ± 11 ng/mL in the experiment with M1619 melanoma cells (FBS + 0.625 μM DS), 102 ± 5^A ng/ml with M1619 melanoma cells (FBS + 1.25 μM DS), 160 ± 17^A ng/ml in the experiment on M1619 melanoma cells (FBS + 2.5 μM DS) and 195 ± 3^B ng/ml in the experiment on M1619 melanoma cells (FBS + 5.0 μM DS). In addition, the “generation of reactive oxygen species (dichlorofluorescein fluorescence vs baseline)” value is given as “not increased” with M1619 cells (1.25 μM disulfiram and 0.2 to 1.6 μM CuSO4); “not increased” with M1619 cells (disulfiram 0.625 to 5 μM).
